Reference: patent publication US20110015226A1, “Treatment of Energy Utilization Disease” (SUMMIT CORPORATION PLC, priority 2008, published 2011)
pIC50: −log10 of the molar value.

Tests used:
rat intestinal maltase = settings: from Yasuda et al., 2002; cited from earlier work
digestive glucosidases = settings: Watson et al., 2001; cited from earlier work
[1] = Uptake of G2 after oral Gymnema water extract, urine monitoring; format: in vivo, human; settings: one volunteer
Protocol: In a preliminary experiment on one volunteer to determine if G2 was readily absorbed from the gastrointestinal tract, a water extract of Gymnema leaves obtained commercially containing 7 mg of G2 was drunk and urine monitored for G2 over 4 hours (0-2 hours and 2-4 hours). An internal standard of 1 mg of castanospermine was added to the two samples of urine prior to applying to a cation exchange resin (IR120 in the H^+ form). After washing the resin with copious water, the bound material was displaced wing excess 2M NH4^+ solution and dried for GC-MS analysis. The samples were derivatised using Pierce Tri-Sil to produce trimethyl-silyl-derivatives of the imino sugars and imino sugar acids. GC-MS was carried out on a Perkin Elmer TurboMass Gold mass spectrometer, with a quadrupole ion filter system, which was run at 250° C. constantly during analysis. The detector mass range was set to 100 to 650 amu. The temperature of the transfer line (GC to MS) was held at 250° C. The GC column was a […] fused-silica column (Varian ‘Factor Four’ VF-5 ms column, 25 m×0.25 mm i.d., 0.25 μm phase thickness). The carrier gas (helium) flow rate was 1 ml min-1. G2 gives a characteristic mass spectrum as the tms derivative and was well resolved allowing quantification.

Storage stability = format: physicochemical; settings: all normal laboratory storage conditions
glucuronidase = glucuronidase (Homo sapiens, UniProt P08236); settings: Booth et al. (2007) and references therein; cited from earlier work
α-glucosidases = test: Inhibition of α-glucosidases (summary statement); format: biochemical; settings: only just reaching 50% inhibition at nearly mM concentration
Text: The results tabulated below were obtained using commercially available glycosidases and p-nitrophenyl-substrates using standard methods described for example by Watson et al (1997) Phytochemistry 46 255-259. All enzymes and substrates were bought from Sigma. Enzyme and substrate solutions were made using sodium phosphate buffers at the pH optima values. The enzymes used were α-D-glucosidase Saccharomyces cerevisiae, Bacillus stearothermophilus, Oryzae sativa), β-D-glucosidase (Almond), α-D-mannosidase (Jack bean), α-D-galactosidase (Green coffee beans), β-D-galactosidase (Bovine liver), α-L-fucosidase (Bovine kidney), N-acetyl-β-D-glucosaminidase (Bovine kidney, Jack bean, Aspergillus oryzae), Naringinase (Penicillium decumbens) and amyloglucosidase (Aspergillus niger). All enzymes were used with the appropriate p-nitrophenyl substrates (5 mM). Amyloglucosidase activity was measured using amylopectin (0.1%) (Merck) mixed with sodium phosphate buffer, pH 4.5 in a glass bottle, and healed in a boiling water bath for 20 minutes to dissolve with released glucose measured using ‘Trinder’ glucose detection solution (Sigma).

[2] = test system: β-D-mannosidase Cellullomonas fimi; test: Glycosidase inhibition: β-D-mannosidase Cellullomonas fimi; format: biochemical; settings: compounds tested at 0.8 mM
Protocol: All enzymes and para-nitrophenyl substrates were purchased from Sigma, with the exception of beta-mannosidase which came from Megazyme. Enzymes were assayed at 27° C. in 0.1M citric acid/0.2M disodium hydrogen phosphate buffers at the optimum pH for the enzyme. The incubation mixture consisted of 10 μl enzyme solution, 10 μl of 1 mg/ml aqueous solution of extract and 50 μl of the appropriate 5 mM para-nitrophenyl substrate made up in buffer at the optimum pH for the enzyme. The reactions were stopped by addition of 70 μl 0.4M glycine (pH 10.4) during the exponential phase of the reaction, which had been determined at the beginning using uninhibited assays in which water replaced inhibitor. Final absorbances were read at 405 nm using a Versamax microplate reader (Molecular Devices). Assays were carried out in triplicate, and the values given are means of the three replicates per assay. (See Watson, A. A., Nash, R. J., Wormald, M. R., Harvey, D. J., Dealler, S., Lees, E., Asano, N., Kizu, H., Kato, A., Griffiths, R. C., Cairns, A. J. and Fleet, G. W. J. (1997). Glycosidase-inhibiting pyrrolidine alkaloids from Hyacinthoides non-scripta. Phytochemistry 46 (2): 255-259.)

rat intestinal sucrase = biological target: T1, rat intestinal sucrase (Rattus norvegicus, UniProt P23739); test: Rat intestinal glycosidases: sucrase; format: biochemical; settings: rat intestinal brush border membranes
T1 construct: Enzyme activities were prepared from brush border membranes of rat small intestine; from tissue; host or cells: rat small intestine brush border membranes
Protocol: Enzyme activities were prepared from brush border membranes of rat small intestine using disaccharides as substrates as described by Yasuda et al., 2002.

iduronidase = iduronidase (Homo sapiens, UniProt P35475); settings: Booth et al. (2007) and references therein; cited from earlier work
ob/ob mice = test: Oral glucose tolerance test after 7 days dosing in ob/ob mice; format: in vivo
Protocol: The study started with 42 male ob/ob mice, 10 weeks of age. The mice were fed a normal chow diet during the whole study. After 1 week of acclimatization, mice were matched on basis of body weight, plasma glucose and insulin (after 4 h-fasting) and divided in 3 groups of 10 animals (t=0 days). For the next 6 days, mice received vehicle (control group 1) or 5 mg/kg/day (group 2) or 50 mg/kg/day (group 3) of the compound of formula (G2) (test compound) around 12.00 h by gavage (5 ml/kg mouse). On the 7th day, mice were fasted at 8.00 h and received the last gavage (vehicle for group 1 or 5 mg/kg/day, test compound for group 2 or 50 mg/kg/day test compound for group 3) at 12.00 h. At 13.00 h the mice subsequently received a glucose bolus (2 g/kg mouse, 5 ml/kg mouse) by gavage as start of the oral glucose tolerance test (OGTT). Measurement of blood glucose and plasma collection was at t=0 (just before gavage of glucose) and at t=5, 15, 30, 45, 60 and 120 min after glucose bolus. After the OGTT, mice were sacrificed with CO2 and additional blood was collected in heparin-coated tubes via heart puncture (>100 μl plasma was obtained) and heparin-plasma samples were analysed.
On day 0 mice were randomized on body weight and 4 h fasted plasma glucose and insulin levels (table 3.1.a). Twelve out of 42 mice were excluded, to create more homogenous groups with respect to body weight, plasma glucose and insulin.

[3] = 5 mg/kg/day or 50 mg/kg/day by gavage, compared to control (vehicle) group

T1 sequence (P23739 whole entry): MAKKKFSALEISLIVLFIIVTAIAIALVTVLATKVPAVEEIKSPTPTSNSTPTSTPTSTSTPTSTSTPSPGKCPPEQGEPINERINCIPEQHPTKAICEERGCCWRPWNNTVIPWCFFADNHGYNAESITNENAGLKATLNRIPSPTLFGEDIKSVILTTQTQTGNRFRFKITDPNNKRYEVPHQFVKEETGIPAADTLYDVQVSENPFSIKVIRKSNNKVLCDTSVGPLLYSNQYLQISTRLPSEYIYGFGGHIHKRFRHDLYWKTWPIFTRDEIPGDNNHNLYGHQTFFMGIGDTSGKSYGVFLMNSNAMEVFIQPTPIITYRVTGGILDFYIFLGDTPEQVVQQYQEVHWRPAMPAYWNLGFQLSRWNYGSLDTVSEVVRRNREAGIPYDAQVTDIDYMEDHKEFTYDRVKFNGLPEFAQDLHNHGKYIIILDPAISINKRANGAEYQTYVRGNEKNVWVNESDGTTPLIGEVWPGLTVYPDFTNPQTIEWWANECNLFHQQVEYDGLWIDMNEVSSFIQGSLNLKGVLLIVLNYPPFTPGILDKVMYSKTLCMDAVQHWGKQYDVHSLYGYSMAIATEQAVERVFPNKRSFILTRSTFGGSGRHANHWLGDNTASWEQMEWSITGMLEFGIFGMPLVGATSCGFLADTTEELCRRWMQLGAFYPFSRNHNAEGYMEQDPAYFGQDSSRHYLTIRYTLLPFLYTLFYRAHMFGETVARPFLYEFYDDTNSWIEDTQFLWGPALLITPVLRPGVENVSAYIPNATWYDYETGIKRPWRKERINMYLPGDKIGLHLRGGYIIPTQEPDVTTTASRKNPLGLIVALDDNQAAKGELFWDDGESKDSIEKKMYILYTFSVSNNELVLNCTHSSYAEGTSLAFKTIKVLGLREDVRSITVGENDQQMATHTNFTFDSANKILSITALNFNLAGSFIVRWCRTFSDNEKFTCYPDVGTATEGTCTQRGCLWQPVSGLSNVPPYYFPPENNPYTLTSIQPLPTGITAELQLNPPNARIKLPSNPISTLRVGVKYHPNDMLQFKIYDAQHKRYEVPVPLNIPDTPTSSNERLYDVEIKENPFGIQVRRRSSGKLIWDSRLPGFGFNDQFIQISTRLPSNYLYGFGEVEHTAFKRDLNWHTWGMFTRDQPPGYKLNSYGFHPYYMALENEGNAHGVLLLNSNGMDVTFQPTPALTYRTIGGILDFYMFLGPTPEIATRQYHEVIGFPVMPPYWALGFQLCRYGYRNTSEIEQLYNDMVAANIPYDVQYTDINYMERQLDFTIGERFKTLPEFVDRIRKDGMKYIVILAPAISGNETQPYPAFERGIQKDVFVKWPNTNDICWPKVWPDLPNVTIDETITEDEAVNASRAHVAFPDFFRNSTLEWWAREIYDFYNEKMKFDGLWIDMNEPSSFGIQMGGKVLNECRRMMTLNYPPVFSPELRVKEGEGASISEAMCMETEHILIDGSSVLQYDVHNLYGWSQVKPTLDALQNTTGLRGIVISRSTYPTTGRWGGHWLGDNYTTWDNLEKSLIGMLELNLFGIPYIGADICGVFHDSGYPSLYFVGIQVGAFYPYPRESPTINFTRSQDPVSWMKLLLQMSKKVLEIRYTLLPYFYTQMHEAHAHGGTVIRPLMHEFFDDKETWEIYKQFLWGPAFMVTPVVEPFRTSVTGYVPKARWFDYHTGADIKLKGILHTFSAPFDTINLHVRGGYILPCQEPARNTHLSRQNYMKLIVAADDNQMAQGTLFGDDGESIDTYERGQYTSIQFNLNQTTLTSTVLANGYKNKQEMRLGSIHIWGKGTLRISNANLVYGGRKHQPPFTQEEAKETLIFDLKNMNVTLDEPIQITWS
Sequence of glucuronidase (P08236 23-651): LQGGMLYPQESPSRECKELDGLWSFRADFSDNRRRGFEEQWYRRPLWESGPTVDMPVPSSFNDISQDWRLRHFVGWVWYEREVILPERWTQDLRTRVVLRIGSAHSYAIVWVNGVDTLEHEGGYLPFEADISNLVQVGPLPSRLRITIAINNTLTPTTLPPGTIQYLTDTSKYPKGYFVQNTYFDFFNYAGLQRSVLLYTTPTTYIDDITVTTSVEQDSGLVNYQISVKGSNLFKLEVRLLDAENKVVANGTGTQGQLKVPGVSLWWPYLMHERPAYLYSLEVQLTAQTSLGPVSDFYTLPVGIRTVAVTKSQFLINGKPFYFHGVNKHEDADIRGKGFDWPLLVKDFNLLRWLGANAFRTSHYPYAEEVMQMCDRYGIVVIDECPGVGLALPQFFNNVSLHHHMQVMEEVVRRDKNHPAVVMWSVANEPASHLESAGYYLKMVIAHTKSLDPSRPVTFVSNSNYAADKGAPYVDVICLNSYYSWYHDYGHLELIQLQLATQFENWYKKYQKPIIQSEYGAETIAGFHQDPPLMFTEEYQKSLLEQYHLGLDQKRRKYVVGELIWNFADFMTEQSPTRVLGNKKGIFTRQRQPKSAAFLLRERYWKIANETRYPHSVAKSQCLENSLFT
Sequence of iduronidase (P35475 28-653): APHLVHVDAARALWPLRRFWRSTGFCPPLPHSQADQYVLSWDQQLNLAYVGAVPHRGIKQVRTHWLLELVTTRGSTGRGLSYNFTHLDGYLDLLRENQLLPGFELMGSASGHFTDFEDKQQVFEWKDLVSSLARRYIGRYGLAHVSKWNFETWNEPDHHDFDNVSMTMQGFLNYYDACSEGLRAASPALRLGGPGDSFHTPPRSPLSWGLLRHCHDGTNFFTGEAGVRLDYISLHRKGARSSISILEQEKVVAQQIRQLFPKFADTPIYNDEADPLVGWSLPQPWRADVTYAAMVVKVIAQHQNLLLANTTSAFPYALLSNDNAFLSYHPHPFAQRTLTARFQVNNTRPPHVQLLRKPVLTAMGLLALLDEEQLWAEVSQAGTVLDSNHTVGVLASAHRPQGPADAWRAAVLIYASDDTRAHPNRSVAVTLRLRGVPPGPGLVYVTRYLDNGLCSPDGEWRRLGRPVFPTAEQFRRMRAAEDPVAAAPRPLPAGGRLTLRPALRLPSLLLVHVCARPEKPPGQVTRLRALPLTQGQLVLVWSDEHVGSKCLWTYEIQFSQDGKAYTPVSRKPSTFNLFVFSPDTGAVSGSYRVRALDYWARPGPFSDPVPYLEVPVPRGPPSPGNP

Row | Compound | pIC50 (rat intestinal maltase) | Ki values, digestive glucosidases (digestive glucosidases) | G2 recovered in urine ([1]; oral water extract containing 7 mg of G2, within four hours) | G2 in urine ([1]; oral water extract of Gymnema leaves containing 7 mg of G2, urine 0-2 hours and 2-4 hours) | stability (Storage stability) | inhibition of glucuronidase (glucuronidase) | inhibition of α-glucosidases (α-glucosidases) | % inhibition, β-D-mannosidase Cellullomonas fimi [2] | pIC50 (rat intestinal sucrase) | inhibition of iduronidase (iduronidase) | plasma insulin concentrations 120 min after glucose bolus (ob/ob mice; 5 mg/kg and 50 mg/kg groups vs control) | body weight (ob/ob mice; [3]) | food intake (ob/ob mice; [3]) | plasma insulin at 15, 30, 45 and 60 min (ob/ob mice; after glucose bolus 2 g/kg, 5 and 50 mg/kg/day groups vs control) | plasma insulin levels at 0 min (ob/ob mice; just before oral glucose load, 5 and 50 mg/kg/day groups vs control, reduction not significant)
1 | OC[C@H]1NC[C@H](O)[C@@H](O)[C@@H]1O [DNJ, 1-deoxynojirimycin, reference compound] | 6.44 | low or sub-μM range |  |  |  |  |  |  |  |  |  |  |  |  | 
2 | O=C(O)[C@H]1NC[C@H](O)[C@@H](O)[C@@H]1O [Compound G2, 2S,3R,4R,5S-trihydroxypiperidine-2-carboxylic acid] |  |  | ~7 mg | detected | stable | weak inhibitor | very weak inhibitor | NI (NI = no inhibition) | < 3.00 | weak inhibitor | significantly increased | not significantly changed | not significantly changed | No significant changes | reduced somewhat
